Measurements published in US7829063B2, “Development of molecular imaging probes for carbonic anhydrase-IX using click chemistry” (Siemens Medical Solutions USA, Inc., priority 2007, dated 2010).

molecular target: T1, CA-IX (Homo sapiens, UniProt Q16790); test: CA-IX combinatorial library screening, competitive fluorescence-based assay with dansylamide (DNSA); format: binding; conditions: 1 h; Table 1, Libraries 1-3; sample concentrations 100 nM and 1000 nM, DNSA 200 μM; screening at 1 μM; read-out: In Vitro Binding Assay (Library Screening)
T1 construct: His tag (C); purchased R&D Systems Inc. 2188-CA; host or cells: mouse myeloma cell line NS0
Description: General. CA-IX human recombinant enzyme was expressed with a C-terminal His tag in a mouse myeloma cell line, NS0 (R&D Systems Inc., catalog number 2188-CA). The human red blood cells were obtained from Research Blood Components, LLC. All absorbance measurements were performed on a SPECTRA MAX M2 plate reader at 25° C. The LC/MS analyses were performed on an Agilent 1100 series LC/MSD (SL) using a 30×2.1 mm Zorbax C8 column with a Phenomenex C18 pre-column. Compound detection was accomplished by electrospray mass spectroscopy in positive selected ion mode (LC/MS-SIM). The elution solvents were acetonitrile and water, contained 0.05% TFA. Nuclear magnetic resonance (NMR) spectra were obtained on a Bruker AMX 300 MHz spectrometer or a Varian 400. 19F NMR spectra were recorded on a Bruker AMX 282.35 MHz or a Varian 400 spectrometer. The mass spectra were recorded on an Agilent 1100 series LC/MSD with electrospray mass spectroscopic detection. Flash column chromatography was performed on Merck silica gel (40-63 μm) using the solvent system indicated. The radiochemical and chemical purities were analyzed by RP-HPLC.
General Combinatorial Library Screening Protocol for CA-IX
The CA-IX screening assay was employed for testing libraries derived from the various “anchor” molecules, using ethoxzolamide as a positive control. The assay was performed at a substrate (dansylamide, DNSA) concentration of 200 μM, and sample concentrations of 100 nM and 1000 nM, respectively. A modified competitive fluorescence-based assay (A. Jain, S. G. Huang, G. M. Whitesides, J. Am. Chem. Soc. 1994, 116, 5057) was used to measure CA-IX activity. The enzymatic assay was carried out in a 96-well plate. To the wells, deionized water, 40 μL of phosphate buffer (250 mM, pH 7.4), 2.4 μL of CA-IX (17 μM), and 2 μL or 20 μL of inhibitor (concentration of 100 nM or 1000 nM) were added to achieve a final volume of 180 μL. Reactions were initiated by adding 20 μL DNSA (200 μM) to each well and the plate was incubated at 25° C. for 1 hour. The fluorescence intensities from each well of the plate were then read at 460 nm using a plate reader with an excitation wavelength of 290 nm.

Inhibition at 1 µM, < 40%:
NCCCn1cc(CNC(=O)c2ccc(S(N)(=O)=O)cc2)nn1 [DHK95], NS(=O)(=O)c1ccc(C(=O)NCc2cn(C3CCN(S(=O)(=O)/C=C/c4ccccc4)CC3)nn2)cc1 [DHK96], NS(=O)(=O)c1ccc(C(=O)NCc2cn(C3CCN(C(=O)/C=C/c4ccccc4)CC3)nn2)cc1 [DHK97], NS(=O)(=O)c1ccc(-c2cn(CC(=O)Nc3nccs3)nn2)cc1 [DHK101], NS(=O)(=O)c1ccc(-c2cn(CCC(=O)Nc3ccccc3)nn2)cc1 [DHK102], NS(=O)(=O)c1ccc(-c2cn(-c3cccc(C(=O)NN4CCOCC4)c3)nn2)cc1 [DHK104], NS(=O)(=O)c1ccc(-c2cn(CC(=O)NC(Cc3cnc[nH]3)C(=O)O)nn2)cc1 (stereo not shown) [DHK106], NS(=O)(=O)c1ccc(-c2cn(CC(=O)N3CCN(c4cc(Cl)cc(Cl)c4)CC3)nn2)cc1 [DHK107], NCCCn1cc(-c2ccc(S(N)(=O)=O)cc2)nn1 [DHK108], NS(=O)(=O)c1ccc(-c2cn(C3CCN(S(=O)(=O)/C=C/c4ccccc4)CC3)nn2)cc1 [DHK109], CCCCCCCCCCC(C(=O)O)n1cc(CNC(=O)c2ccc(S(N)(=O)=O)cc2)nn1 (stereo not shown) [DHK110], NS(=O)(=O)c1ccc(-c2cn(C3C(O)C(O)OC3C(O)CO)nn2)cc1 (stereo not shown) [DHK111], NS(=O)(=O)c1ccc(C(=O)NCc2cn(C3C(O)C(O)OC3C(O)CO)nn2)cc1 (stereo not shown) [DHK112], NS(=O)(=O)c1nc2ccc(OCc3cn(CCN4CCOCC4)nn3)cc2s1 [DHK114], Cc1ccnc(NC(=O)[C@H](Cc2ccccc2)n2cc(COc3ccc4nc(S(N)(=O)=O)sc4c3)nn2)c1 [DHK115], NS(=O)(=O)c1nc2ccc(OCc3cn(-c4cccc(C(=O)NN5CCOCC5)c4)nn3)cc2s1 [DHK116], CC1CCCN(C(=O)C(C(C)C)n2cc(COc3ccc4nc(S(N)(=O)=O)sc4c3)nn2)C1 (stereo not shown) [DHK119], Cc1ccc(C)c(CNC(=O)[C@H](Cc2ccccc2)n2cc(COc3ccc4nc(S(N)(=O)=O)sc4c3)nn2)c1 [DHK120], CC(C)[C@@H](C(=O)NC1CCCCC1)n1cc(COc2ccc3nc(S(N)(=O)=O)sc3c2)nn1 [DHK124], CC(C)[C@@H](C(=O)NCc1ccccc1)n1cc(COc2ccc3nc(S(N)(=O)=O)sc3c2)nn1 [DHK126], COC(=O)C(Cc1ccc(C(=O)O)cc1)n1cc(COc2ccc3nc(S(N)(=O)=O)sc3c2)nn1 (stereo not shown) [DHK129], CCCOC(=O)c1ccc(NC(=O)Cn2cc(COc3ccc4nc(S(N)(=O)=O)sc4c3)nn2)cc1 [DHK130], CC(C)(C)c1cc(C(=O)Cn2cc(COc3ccc4nc(S(N)(=O)=O)sc4c3)nn2)cc(C(C)(C)C)c1O [DHK132], CC(C)C(C(=O)Nc1ccc(-c2ccccc2)cc1)n1cc(COc2ccc3nc(S(N)(=O)=O)sc3c2)nn1 (stereo not shown) [DHK134], CCCCCC[C@@H](O)[C@@H](O)c1ccc(Cn2cc(COc3ccc4nc(S(N)(=O)=O)sc4c3)nn2)cc1 [DHK135], NS(=O)(=O)c1nc2ccc(OCc3cn(-c4ccnc5cc(Cl)ccc45)nn3)cc2s1 [DHK136], NS(=O)(=O)c1nc2ccc(OCc3cn(CCCCCCO)nn3)cc2s1 [DHK137], NS(=O)(=O)c1nc2ccc(OCc3cn(C(c4ccccc4)[C@@H](OC/C=C/c4ccccc4)c4ccccc4)nn3)cc2s1 (stereo partly shown) [DHK138], CC(C)[C@@H](C(=O)NCCc1ccsc1)n1cc(COc2ccc3nc(S(N)(=O)=O)sc3c2)nn1 [DHK139], NS(=O)(=O)c1nc2ccc(OCc3cn(CCn4c(=O)[nH]c5ccccc5c4=O)nn3)cc2s1 [DHK140], NS(=O)(=O)c1nc2ccc(OCc3cn(CC(=O)N4CCN(c5cc(Cl)cc(Cl)c5)CC4)nn3)cc2s1 [DHK141]
